Laboratory results reported in ChEMBL document CHEMBL1146649, “New highly active taxoids from 9 beta-dihydrobaccatin-9,10-acetals. Part 5” (2004).
Values after ≈ are worked out from the molar mass of the structure shown.

Assays:
Assay type in all cases: functional
[1] = test system: B16; assay: Effective dose of intravenously administered compound against B16 melanoma BL6 cells implanted into mice; settings: Mus musculus, B16, iv
[2] = test system: B16; assay: Effective dose of perorally administered compound against B16 melanoma BL6 cells implanted into mice; settings: Mus musculus, B16, po
[3] = test system: P388; assay: Concentration required to inhibit mouse P388 cell line growth by 50% at 72 hr continuous exposure; settings: P388, 72 h
[4] = test system: Mus musculus; assay: Effective dose of perorally administered compound against B16 melanoma BL6 cells implanted into mice; range is 11.9-27.6; settings: B16, po
[5] = test system: PC-6; assay: Concentration required to inhibit human PC-6/VP1-1 cell line growth by 50% at 72 hr exposure; settings: PC-6, 72 h
[6] = test system: PC-12; assay: Concentration required to inhibit human PC-12 cell line growth by 50% at 72 hr continuous exposure; settings: PC-12, 72 h
[7] = test system: PC-6; assay: Concentration required to inhibit human PC-6/VCR29-9 cell line growth by 50% at 72 hr exposure; settings: PC-6, 72 h
[8] = test system: PC-6; assay: Concentration required to inhibit human PC-6 cell line growth by 50% at 72 hr continuous exposure; settings: PC-6, 72 h
[9] = test system: PC-6; assay: Concentration that inhibited the growth of PC-6/VCR29-9 cells by 50% at 72 hr continuous exposure; settings: Homo sapiens, PC-6, 72 h

SMILES | ED50 [1] [mg/kg] | ED50 [2] [mg/kg] | GI50 [3] [ng/mL] | ED50 [4] [mg/kg] | GI50 [5] [ng/mL] | GI50 [6] [ng/mL] | GI50 [7] [ng/mL] | GI50 [8] [ng/mL] | GI50 [9] [ng/mL]
COc1ccc([C@H](NC(=O)OC(C)(C)C)[C@@H](O)C(=O)O[C@H]2C[C@@]3(O)[C@@H](OCc4ccccc4)[C@H]4[C@@](C)(CC[C@H]5OC[C@]54OC(C)=O)[C@@H]4O[C@H](CN5CCOCC5)O[C@@H]4C(=C2C)C3(C)C)nc1 | 5.9 | 13.3 |  |  |  |  |  |  | 
CC(=O)O[C@@]12CO[C@@H]1CC[C@@]1(C)[C@@H]3O[C@H](CNC4CCC4)O[C@@H]3C3=C(C)[C@@H](OC(=O)[C@H](O)[C@@H](NC(=O)OC(C)(C)C)c4ccccn4)C[C@@](O)([C@@H](OCc4ccccc4)[C@@H]12)C3(C)C | 7.9 |  | 0.56 (≈ 0.639 nM) | 27.6 | 81.7 (≈ 93.3 nM) | 1.45 (≈ 1.66 nM) | 4.88 (≈ 5.57 nM) | 0.83 (≈ 0.947 nM) | 
CC(=O)O[C@@]12CO[C@@H]1CC[C@@]1(C)[C@@H]3O[C@H](CNC4CC4)O[C@@H]3C3=C(C)[C@@H](OC(=O)[C@H](O)[C@@H](NC(=O)OC(C)(C)C)c4nccs4)C[C@@](O)([C@@H](OCc4ccccc4)[C@@H]12)C3(C)C |  |  | 0.06 (≈ 0.0691 nM) |  | 39.4 (≈ 45.4 nM) | 0.12 (≈ 0.138 nM) | 1.16 (≈ 1.34 nM) | 0.42 (≈ 0.484 nM) | 
CC(=O)O[C@@]12CO[C@@H]1CC[C@@]1(C)[C@@H]3O[C@H](CNC4CC4)O[C@@H]3C3=C(C)[C@@H](OC(=O)[C@H](O)[C@@H](NC(=O)OC(C)(C)C)c4ccccn4)C[C@@](O)([C@@H](OCc4ccccc4)[C@@H]12)C3(C)C |  |  | 0.17 (≈ 0.197 nM) |  | 49.4 (≈ 57.3 nM) | 0.3 (≈ 0.348 nM) | 2.22 (≈ 2.58 nM) | 0.54 (≈ 0.626 nM) | 
CNC[C@@H]1O[C@@H]2C3=C(C)[C@@H](OC(=O)[C@H](O)[C@@H](NC(=O)OC(C)(C)C)c4ccccn4)C[C@@](O)([C@@H](OCc4ccccc4)[C@H]4[C@@](C)(CC[C@H]5OC[C@]54OC(C)=O)[C@@H]2O1)C3(C)C |  |  | 0.6 (≈ 0.718 nM) |  | 265 (≈ 317 nM) | 5.82 (≈ 6.96 nM) | 43.2 (≈ 51.7 nM) | 0.54 (≈ 0.646 nM) | 
CC(=O)O[C@@]12CO[C@@H]1CC[C@@]1(C)[C@@H]3O[C@H](CN(C)C)O[C@@H]3C3=C(C)[C@@H](OC(=O)[C@H](O)[C@@H](NC(=O)OC(C)(C)C)c4cncs4)C[C@@](O)([C@@H](OCc4ccccc4)[C@@H]12)C3(C)C |  |  | 0.07 (≈ 0.0818 nM) |  | 23.8 (≈ 27.8 nM) | 0.17 (≈ 0.199 nM) |  | 0.3 (≈ 0.35 nM) | 1.63 (≈ 1.9 nM)
